The values below come from publication PMC10451034, “Highly Efficient Photosensitizers with Molecular Vibrational Torsion for Cancer Photodynamic Therapy” (ACS Central Science, 2023).

Molecules are shown by their SMILES.

For data set [1], the system named is 4T1 subcutaneous solid tumor. The data set is described as follows: Tumor suppression (PDT) in 4T1-subcutaneous tumor model. Type of data set: in vivo, BALB/c mice. The note with it: for tumor volume increase: no irradiation. The method, then:
In view of the observation that the fluorescence intensity of QTCy7-Ac in the tumor site peaked around 2–2.5 h after intravenous injection, this period was chosen as the PDT time window. […] Even so, this approach achieved partial tumor suppression; the tumor volume was 1-fold compared with the initial situation. […] After PDT treatment, the tumor kept shrinking in size (Figure S22a), which achieved a tumor suppression rate of nearly 95% (Figure S22b). Nevertheless, the tumors in PBS groups increased quickly with a 6-fold increment compared with the initial volume whether exposed to irradiation or not, which ruled out the influence of light on tumor growth. In addition, there was virtually no difference between the intratumoral and intravenous injection groups treated with QTCy7-Ac, with tumor volumes increasing by 6-fold and 7-fold, respectively, which excluded the cytotoxicity of the dye alone. […]
(§1) of major organs, the mice L) was intravenously injected with QTCy7-Ac (200 μM, 100 μL) 2 hours in advance were killed and the main organs and tumors were removed for […]
(§2) Tumor suppression experiments of 4T1-subcutaneous tumor model
(§3) To confirm the in vivo PDT efficacy of QTCy7-Ac, all the BALB/c mice were divided into 6 groups: 1) saline injection; 2) saline injection with 660 nm irradiation (100 mW/cm2, 15 min); 3) QTCy7-Ac (200 μM, 100 μL) intratumoral injection; 4) QTCy7-Ac (200 μM, 100 μL) intratumoral injection with 660 nm irradiation (100 mW/cm2, 15 min); 5) QTCy7-Ac (200 μM, 100 μL) intravenous injection; 6) QTCy7-Ac (200 μM, 100 μL) intravenous injection with 660 nm irradiation (100 mW/cm2, 15 min); When the volume of subcutaneous tumors reached about 100 mm 3, mice were injected with PBS or QTCy7-Ac, respectively. After 2 h post-injection, tumor region was irradiated with 650 nm light. In the following half month, the tumor volume of all the mice was measured every two days by a vernier caliper. The volume of tumors was calculated by the following formula: […]
Where “V” represent the tumor volume, “a” represent greatest longitudinal diameter (length) and “b” represent the greatest transverse diameter (width).
The in vivo biocompatibility was evaluated by using measurement mice body weight and H&E slice histological analysis. After the PDT treatment, the mice were euthanized, and main organs including heart, liver, spleen, lung, kidneys and tumors were harvested for histological analysis by means of hematoxylin-eosin (H&E) staining.
Data were expressed as mean ± standard deviation. Student's t test was used to evaluate the statistical significance. P values < 0.05 were regarded statistically

Data set [2] can be described thus: In vivo biosafety (body weight, H&E staining of major organs). The arrangement: species or system BALB/c mice. The method, then:
The efficacy and safety of each therapeutic group were also evaluated by performing a hematoxylin and eosin (H&E) staining assay of major organs and tumor tissue (Figures 10g and S23). […]
as §1, §2
as §3, with “After 2 h post-injection, tumor region was irradiated with 650 nm light.” left out
The in vivo biocompatibility was evaluated by using measurement mice body weight and H&E slice histological analysis. […]
Data were expressed as mean ± standard deviation. […]

As to `CCOC(=O)C1=C/C(=C\C=C2/Sc3ccccc3N2CC)C(=O)C(/C=C/c2sc3ccccc3[n+]2CC)=C1` [QTCy7-Ac], the “H&E staining of tumor tissue” value in data set [1] (QTCy7-Ac-mediated PDT) was “Conspicuous morphological damage”. Besides, in data set [1] (intratumoral injection + 660 nm, 100 mW/cm^2, 15 min), the “tumor volume compared with initial” value is 1 fold. Further, the tumor volume increase in data set [1] (intratumoral injection) stood at 6 fold; in data set [1] (intravenous injection), 7 fold. In data set [1] (intravenous injection + 660 nm, 100 mW/cm^2, 15 min), the tumor suppression rate is recorded as roughly 95%. Further, in data set [2] (after 16 days of treatment), the “H&E staining of major organs (heart, liver, spleen, lung, kidney)” value was “not observed”. The body weight changes result in data set [2] (during the treatment) is recorded as “no abnormal body weight changes”.
